Source: US20260285924A1, “PEPTIDE THERAPEUTICS” (priority 2023, published 2026)

How the values were obtained:
[1] = system: A-to-I RNA editing reporter (ADAR) in A375; assay: A-to-I PepTile (REPTILE) screen: A-to-I editing of dsRNA hairpin reporter by NGS; format: cell-based, human; settings: for % A-to-I editing (IFNα): IFNα 6000 U/ml for 48 hours; for % A-to-I editing (Basal): no treatment
Source text: (§1) FIGS. 12A-12D. A-to-I PepTile screen. (A) Composition of A-to-I PepTile linrary screen, and schematic description of the lentiviral expression vector. (B) Experimental workflow. A375 cells were transduced at low MOI, and then treated or not with IFNα for 48 hrs. RNA was extracted and Peptide_ADARreporter RNA species were amplified and sequenced by NGS. (C) Dot plot of A-to-I PepTile library effect on A-to-I editing with or without IFNα treatment. Red line is the mean A-to-I editing of all the 8088 peptides (>100 read counts) no treatment: 25.75% IFNα: 37.6%. (D) Dot plot of A-to-I PepTile library fitness effect upon IFNα for 48 hrs.
FIGS. 17A-17F show A-to-I RNA Editing PiTile (REPTILE) screen in A375. (A) A-to-I RNA Editing PiTile (REPTILE) library design consist of fragmentation of all known ADAR1, ADAR2 interactors and all human double stranded RNA-binding protein into 40 amino acid long peptide. This library was then cloned into a lentivirus vector that also encode a DNA-encoded RNA loop reporter (A-to-I Rep) that is edited by ADAR proteins in cells at the RNA level. When the construct is expressed, the RNA loop gets edited on a single Adenosine, while the 40-mer peptide get expressed at the protein level. Then we can measure the impact of the peptide expression on the editing rate of the RNA loop reporter by sequencing (NGS and Sanger). (B) Experimental workflow of REPTILE screen in A375 cell line. Cells were transduced with the REPTILE library, and then treated for 48 hours with IFNα. Following the treatment, RNA was harvested, converted into cDNA and amplicon library containing peptide Identity (barcode) linked to the RNA loop reporter were prepared for NGS. (C) Result of the A375 REPTILE screen in the no treatment condition. Each dot represents a unique peptide that is associated with an A-to-I editing rate that was measured on the RNA loop. (D) Result of the A375 REPTILE screen in the IFNα condition. Each dot represents a unique peptide that is associated with an A-to-I editing rate that was measured on the RNA loop. Red line represent the A-to-I editing mean, Dash blue line represent 2 times the standard deviation of the % A-to-I editing across all the datasets. This cutoff was used to defined peptides hits that modulate RNA A-to-I editing. (E) Peptide A-to-I Inhibitor Hits intersection between no treatment (% A-to-I editing<15%) and IFNα (% A-to-I editing<27%) conditions. (F) Peptide A-to-I Enhancers Hits intersection between no treatment (% A-to-I editing>36%) and IFNα (% A-to-I editing>47%) conditions.
Provided herein is a screening methodology to measure the effect of small peptide on A-to-I RNA editing in situ and screen thousands of peptides in a single experiment. First, a library of peptides with the potential of impairing A-to-I editing was designed and built. ADAR enzymes edit RNA only on double-stranded RNA structures and via ADAR's double stranded RNA-Binding Domain (dsRBD). […] The A-to-I PepTile library is composed of 19 Human proteins having dsRBD and 34 known protein-protein interactors of ADAR1/2. All these proteins were tiled into 40-mer peptides every 4 amino acids (FIG. 12A). To measure A-to-I editing, a biosensor consisting of a 71 bp dsRNA hairpin structure that gets A-to-I edited at a rate of 25% in A375 melanoma cells, and ~37% upon IFNα treatment was used. This A-to-I editing reporter is fused with DNA sequence encoding for a peptide from the A-to-I PepTile library. The A-to-I PepTile plasmid pool (10304 elements) was used to produced lentiviruses and transduced A375 cells at a low multiplicity of infection (MOI) (FIG. 12B). A part of the infected cells was treated with IFNα at 6000 U/ml for 48 hours, and then bulk RNA of the basal and treated condition was harvested. RNA was then retrotranscribed into cDNA and sequenced by Next-Generation Sequencing (NGS). […]

A375 cells = assay: A-to-I PepTile screen: fitness effect upon IFNα (PepTile abundance untreated vs treated); format: cell-based, human
Source text: as §1
Provided herein is a screening methodology to measure the effect of small peptide on A-to-I RNA editing in situ and screen thousands of peptides in a single experiment. First, a library of peptides with the potential of impairing A-to-I editing was designed and built. ADAR enzymes edit RNA only on double-stranded RNA structures and via ADAR's double stranded RNA-Binding Domain (dsRBD). […] The A-to-I PepTile library is composed of 19 Human proteins having dsRBD and 34 known protein-protein interactors of ADAR1/2. All these proteins were tiled into 40-mer peptides every 4 amino acids (FIG. 12A). To measure A-to-I editing, a biosensor consisting of a 71 bp dsRNA hairpin structure that gets A-to-I edited at a rate of 25% in A375 melanoma cells, and ~37% upon IFNα treatment was used. This A-to-I editing reporter is fused with DNA sequence encoding for a peptide from the A-to-I PepTile library. The A-to-I PepTile plasmid pool (10304 elements) was used to produced lentiviruses and transduced A375 cells at a low multiplicity of infection (MOI) (FIG. 12B). A part of the infected cells was treated with IFNα at 6000 U/ml for 48 hours, and then bulk RNA of the basal and treated condition was harvested. RNA was then retrotranscribed into cDNA and sequenced by Next-Generation Sequencing (NGS). With the sequencing data, the A-to-I editing percentage of the RNA reporter for each PepTile is calculated since both elements are encoded on the same transcript. Moreover, with this screen one can also measure the abundance of the PepTiles between the untreated and treated conditions and determine Fitness score associated to every PepTile. To ensure a robust and more accurate A-to-I editing % estimation a cut-off of 100 read counts was set for each PepTile. […] SEQ ID NOs: 2125-2147 are A-to-I peptide inhibitors and SEQ ID NOs: 2148-2210 are A-to-I activators. In addition, 117 PepTiles were identified that either synergize (SEQ ID NOs: 2211-2243) or protect (SEQ ID NOs: 2244-2327) to IFNα-induced cell death (FIG. 12D and Table 5). These PepTiles are potential new therapeutic agents that can modulate the Interferon pathway. They may be beneficial in treating inflammatory conditions and may also enhance the effectiveness of cancer immunotherapy through synergistic effects.

[2] = IFNα 6000 U/ml for 48 hours vs untreated

Row | Sequence | % A-to-I editing (IFNα) [1] | % A-to-I editing (Basal) [1] | Fitness Score IFNα (A375 cells; [2]) | Fitness Score IFNα (A375 cells; A375, PepTile abundance upon IFNα treatment, negative = synthetic lethal, positive = protector)
1 | MAGPLGPGDAVRRVLECVATGTLLTDGPGLQDPCERDQTDA [ZFR2_207] | 51.31% | 45.30% | 1.51 | 
2 | MAPVAAHTVTAAYAPAAATVAVARPAPVAVAAAATAAAYGG [ZFR_18] | 49.47% | 37.25% | 1.04 | 
3 | MASLQISPQPRPWRPLPAQAQSAWGPAPAPATYRAEGGWPQ [ADAD2_6] | 48.57% | 40.89% | 3.12 | 3.12
4 | MAVEITGAGPGASSVCNSAPGSGPSSPNSSHSTIAENGFTG [HDAC5_75] | 55.71% | 40.79% | 0.76 | 
5 | MAVRRVLECVATGTLLTDGPGLQDPCERDQTDALEPMTLQE [ZFR2_209] | 50.31% | 39.66% | 0.22 | 
6 | MCLSSHFQELSIYQDQEQRILKFLEELGEGKATTAHDLSGK [ADAR_32] | 48.60% | 38.66% | -0.47 | 
7 | MCSFNDPNAKEMHLKGRRHRLQYKKKVNPDLQVEVKPSIRA [ZFR_148] | 48.58% | 37.77% | -1.00 | 
8 | MCYYVFGDLSGGCESYLVNLSLNDNDGSSGASDQDTLAPLP [DVL2_126] | 54.28% | 43.60% | 0.54 | 
9 | MDTLDPELFVECTECGRKMHQICVLHHEIIWPAGFVCDGCL [EP300_310] | 26.86% | 14.29% | -1.83 | 
10 | MDTVISLLTGLSDSQVRAFRHTSTLAAMKLMTALVNVALNL [STAG1_51] | 80.32% | 74.10% | -0.15 | 
11 | MECMHKLGNSCEFRLLSKEGPAHEPKFQYCVAVGAQTFPSV [ADAR_156] | 20.83% | 13.60% | 0.35 | 
12 | MEPAKGGEKLQIKKTVSFHLYISTAPCGDGALFDKSCSDRA [ADAR_236] | 55.48% | 39.57% | -1.07 | 
13 | MESTIVEPKQNENRLSDTKPNDNKQNNGRSETTKSRPETPK [NIPBL_167] | 52.90% | 39.35% | 1.11 | 
14 | METVSSNSSNNTGNSTTETSSTLEVRTQGPILTASGKNPVM [STRBP_120] | 22.73% | 10.91% | 0.07 | 
15 | MFKKRAVEITGAGPGASSVCNSAPGSGPSSPNSSHSTIAEN [HDAC5_74] | 55.72% | 38.94% | 0.29 | 
16 | MFPAVCAHSKKQGKQEAADAALRVLIGENEKAERMGFTEVT [ADAR_193] | 22.77% | 11.47% | 0.57 | 
17 | MFSSRGINFRTRHLMQDLRMLMPHSKADTKMDRKDKLFVIN [BRIX1_17] | 47.02% | 38.66% | 1.21 | 
